{"source": "patent US20100280047A1", "about": "“SALTS OF ACTIVE INGREDIENTS WITH POLYMERIC COUNTER-IONS” (BASF SE, priority 2007, published 2010)", "key": {"[1]": {"test": "Saturation solubility of haloperidol in aqueous polymer solutions (HPLC of filtrate)", "assay_type": "physicochemical", "method": "1.0 g of haloperidol (free base) was added to 100.0 ml of aqueous polymer solution and stirred for 72 h. […] The undissolved amount of haloperidol was filtered off. The content of haloperidol in the filtrate was determined by HPLC.\nFor comparison, the saturation solubility of haloperidol was determined in demineralized water, as well as in hydrochloric acid. In the latter case, the corresponding haloperidol hydrochloride is formed."}, "[2]": {"test": "Saturation solubility of loperamide in aqueous polymer solutions (HPLC of filtrate)", "assay_type": "physicochemical", "method": "1.0 g of loperamide (free base) was added to 100.0 ml of aqueous polymer solution and stirred for 72 h. […] The undissolved amount of loperamide was filtered off. The content of loperamide in the filtrate was determined by HPLC.\nFor comparison, the saturation solubility of loperamide was determined in demineralized water, as well as in hydrochloric acid. In the case of the latter, the corresponding loperamide hydrochloride is formed."}}}
{"molecule": "O=C(CCCN1CCC(O)(c2ccc(Cl)cc2)CC1)c1ccc(F)cc1", "note": "[haloperidol]", "values": [{"measurement": "Concentration of dissolved haloperidol", "setting": "[1]; 10% by wt. polymer D in water, stirred 72 h, pH of filtered solution 3.2", "result": 5200, "unit": "µg/mL"}, {"measurement": "Concentration of dissolved haloperidol", "setting": "[1]; 20% by wt. polymer A in water, stirred 72 h, pH of filtered solution 3.0", "result": 10300, "unit": "µg/mL"}, {"measurement": "Concentration of dissolved haloperidol", "setting": "[1]; 20% by wt. polymer C in water, stirred 72 h, pH of filtered solution 3.3", "result": 7700, "unit": "µg/mL"}, {"measurement": "Concentration of dissolved haloperidol", "setting": "[1]; 20% by wt. polymer D in water, stirred 72 h, pH of filtered solution 3.0", "result": 15100, "unit": "µg/mL"}, {"measurement": "Concentration of dissolved haloperidol", "setting": "[1]; 20% solution of polymer A plus NaOH to pH 10, pH of filtered solution 10.1", "result": "<74", "unit": "µg/mL"}, {"measurement": "Concentration of dissolved haloperidol", "setting": "[1]; demineralized water, 0% polymer, stirred 72 h, pH of filtered solution 7.5", "result": "<17.8", "unit": "µg/mL"}, {"measurement": "Concentration of dissolved haloperidol", "setting": "[1]; hydrochloric acid 10%, no polymer (haloperidol hydrochloride is formed)", "result": "<16", "unit": "µg/mL"}]}
{"molecule": "CN(C)C(=O)C(CCN1CCC(O)(c2ccc(Cl)cc2)CC1)(c1ccccc1)c1ccccc1", "note": "[loperamide]", "values": [{"measurement": "Concentration of dissolved loperamide", "setting": "[2]; 10% by wt. polymer A in water, stirred 72 h, pH of filtered solution 2.5", "result": 6200, "unit": "µg/mL"}, {"measurement": "Concentration of dissolved loperamide", "setting": "[2]; 10% by wt. polymer B in water, stirred 72 h, pH of filtered solution 2.0", "result": 3900, "unit": "µg/mL"}, {"measurement": "Concentration of dissolved loperamide", "setting": "[2]; 20% by wt. polymer A in water, stirred 72 h", "result": 7600, "unit": "µg/mL"}, {"measurement": "Concentration of dissolved loperamide", "setting": "[2]; 20% by wt. polymer D in water, stirred 72 h, pH of filtered solution 1.9", "result": 5900, "unit": "µg/mL"}, {"measurement": "Concentration of dissolved loperamide", "setting": "[2]; demineralized water, 0% polymer, stirred 72 h", "result": "<17", "unit": "µg/mL"}, {"measurement": "Concentration of dissolved loperamide", "setting": "[2]; hydrochloric acid 10%, no polymer (loperamide hydrochloride is formed)", "result": "<14.9", "unit": "µg/mL"}]}
